Measured values as given in BigSolDB 2.1.

C#CC(C)(C)NC(=O)c1cc(Cl)cc(Cl)c1
solubility (mole fraction)
Settings | 278.15 K | 283.15 K | 288.15 K | 293.15 K | 298.15 K | 303.15 K | 308.15 K | 313.15 K | 318.15 K | 323.15 K
in cyclohexane | – | 0.000135 | 0.000185 | 0.000293 | 0.000425 | 0.000544 | 0.000704 | 0.00081 | 0.00101 | 0.00124
in ethanol | 0.0071 | 0.00834 | 0.00953 | 0.011 | 0.0131 | 0.0151 | 0.0174 | 0.0205 | 0.0242 | 0.0295
in isopropanol | 0.00219 | 0.00269 | 0.00351 | 0.00526 | 0.00705 | 0.00865 | 0.0112 | 0.0137 | 0.0171 | 0.023
in methanol | 0.00654 | 0.0077 | 0.00892 | 0.0101 | 0.0124 | 0.0145 | 0.017 | 0.0201 | 0.0236 | 0.0283
in toluene | 0.00179 | 0.00238 | 0.00298 | 0.00368 | 0.00467 | 0.00593 | 0.00735 | 0.00924 | 0.0113 | 0.0124
